For 1 compound, electrical conductivity and viscosity results are on record in a compilation of properties of binary mixtures (doi:10.1021/acs.jpcc.9b02625).

This series can be described thus: xn = mol fraction of the nth substance listed. To be noted: 303.15 K, 101 kPa.

Turning to `O=S(=O)([N-]S(=O)(=O)C(F)(F)F)C(F)(F)F.[Li+]` + O=S1(=O)CCCC1, the electrical conductivity reads like this: (x1 = 0.1) 0.274 S/m; (x1 = 0.111) 0.262 S/m; (x1 = 0.2) 0.166 S/m; (x1 = 0.25) 0.104 S/m; (x1 = 0.333) 0.042 S/m. Also, the viscosity is, setting by setting: (x1 = 0.1) 28 mPa·s; (x1 = 0.111) 31 mPa·s; (x1 = 0.2) 90.3 mPa·s; (x1 = 0.25) 175 mPa·s; (x1 = 0.333) 627 mPa·s.
